According to patent US20250332109A1 (Veradermics, Incorporated, priority 2024, published 2025):
Where two headings read alike, the source gives them in different places.

Legend:
hypertensive patients = details: intravenous infusion; cited from earlier work
[1] = test system: person with androgenetic alopecia; details: 1.25 mg QID
mice = details: dietary, up to 2 years, 10, 25, and 63 mg/kg/day; cited from earlier work
subjects = details: topical foam 5% versus vehicle topical foam; 404 subjects enrolled; cited from earlier work
rabbits = details: oral, 5 times the maximum recommended oral antihypertensive human dose; cited from earlier work
patients = details: chronic therapy; initially, then recovers; cited from earlier work
[2] = cited from earlier work
[3] = test system: person with androgenetic alopecia; assay: Case study: person with androgenetic alopecia and hypertension treated with oral minoxidil; details: 0.625 mg four times a day
male adults with AGA = details: 5 mg oral at bedtime; 24 week follow up; cited from earlier work
[4] = primarily by conjugation with glucuronic acid; cited from earlier work

For `Nc1cc(N2CCCCC2)nc(N)[n+]1[O-]` [minoxidil], the “steady state plasma concentration associated with significant (>5 beats per minute) changes in heart rate” value (hypertensive patients) is given as “above 20 ng/mL”, the “unwanted hair growth or other adverse events, including cardiac effects” value [1] is given as “No unwanted hair growth or other adverse events” and the “incidence of malignant lymphomas in females” value (mice) is given as “increased incidence of malignant lymphomas”. The “SAEs reported in treated subjects” value (subjects) was “Six”, the fetal resorption (rabbits) was “increased fetal resorption” and the “temporary decrease in hematocrit, hemoglobin, and erythrocyte count (hemodilution)” value (patients) was “approximately 7%”. For the same compound, the “dose dependence of PK” value ([2]; 2.5 mg, 5 mg, 10 mg oral, PK and urinary excretion data) was “dose-independent PK”, the “duration plasma concentrations above 20 ng/mL” value ([2]; 5 mg dose level) was “around 1 h” and the “duration plasma concentrations above 20 ng/mL” value ([2]; 10 mg dose level) was “around 2 h”. For the same compound, the observed half-life ([2]; immediate release formulation, healthy subjects) was “around 1 h”, the “effect on blood pressure” value ([2]; normotensive subjects, 2.5 mg, 5 mg, or 10 mg oral) was “little effect on blood pressure” and the “reductions in blood pressure” value [3] was “did not experience significant reductions in blood pressure”. The “unwanted hair growth or other adverse events” value [3] was “No unwanted hair growth or other adverse events”, the subjects reporting edema (male adults with AGA) was 2.9% and the subjects reporting vertigo (male adults with AGA) was 2.9%. For the same compound, the “fraction of oral dose metabolized” value [4] was “About 90%”.
